Data on eleven molecules can be found in patent publication US20260132125A1, “PESTICIDALLY ACTIVE FUSED BICYCLIC HETEROAROMATIC COMPOUNDS” (priority 2022, published 2026).

What all share (assay type): in vivo
One test deals with Myzus persicae. The test is described as follows: Example B4: activity against Myzus persicae (green peach aphid), intrinsic activity. The settings on record: 120 h, test rate 12 ppm, 5 days after infestation. As for the experimental part: Test compounds prepared from 10′000 ppm DMSO stock solutions were applied by pipette into 24-well microtiter plates and mixed with sucrose solution. The plates were closed with a stretched Parafilm. A plastic stencil with 24 holes was placed onto the plate and infested pea seedlings were placed directly on the Parafilm. The infested plate was closed with a gel blotting paper and another plastic stencil and then turned upside down. The samples were assessed for mortality 5 days after infestation.

Another test has as its system Plutella xylostella. The test is described as follows: Example B5: activity against Plutella xylostella (diamond back moth), artificial diet, eggs. Conditions: 192 h, 8 days after infestation, read-out: effect in at least one of the two categories (mortality or growth inhibition). As to the method: 24-well microtiter plates with artificial diet were treated with aqueous test solutions prepared from 10′000 ppm DMSO stock solutions by pipetting. After drying, Plutella eggs were pipetted through a plastic stencil onto a gel blotting paper and the plate was closed with it. The samples were assessed for mortality and growth inhibition in comparison to untreated samples 8 days after infestation. The following compounds gave an effect of at least 80% in at least one of the two categories (mortality or growth inhibition) at an application rate of 200 ppm: P1, P2, P3, P4, P5, P6, P7, P8, P9, P10, P11, P12, P13, P14, P15, P16, P17, P18, P19, P20, P21, P22, P23, P24, P25, P26, P27, P28, P29, P30, P31, P32, P33, P34, P35, P36, P37, P38, P39, P40, P41, P42, P43, P44, P45, P46, P47, P48, P49, P50, P51, P52, P53, P54, P55, P57, P58, P59, P60, P61, P62, P63, P64, P65, P66, P67, P69, P70, P71, P72, P73, P74, P75, P77, P78, P81, P82, P83.

The test system of the next test is Spodoptera littoralis. The test is described as follows: Example B6: activity against Spodoptera littoralis (Egyptian cotton leaf worm), cotton leaf discs. Conditions: foliar, 72 h, 200 ppm, L1 larvae, 3 days after infestation, read-out: control (at least one of mortality, anti-feedant effect, growth inhibition). As for the experimental part:
Cotton leaf discs were placed onto agar in 24-well microtiter plates and sprayed with aqueous test solutions prepared from 10′000 ppm DMSO stock solutions. After drying the leaf discs were infested with five L1 larvae. The samples were assessed for mortality, anti-feeding effect, and growth inhibition in comparison to untreated samples 3 days after infestation. Control of Spodoptera littoralis by a test sample is given when at least one of the categories mortality, anti-feedant effect, and growth inhibition is higher than the untreated sample.

In a further test the test system is Chilo suppressalis. The experiment in a line: Example B1: activity against Chilo suppressalis (striped rice stemborer), artificial diet. The settings on record: for percent control (mortality, anti-feedant effect or growth inhibition) at 200 ppm: 144 h, L2 larvae, 6 days after infestation, read-out: control (at least one of mortality, anti-feedant effect, growth inhibition). As to the method:
24-well microtiter plates with artificial diet were treated with aqueous test solutions prepared from 10′000 ppm DMSO stock solutions by pipetting. After drying, the plates were infested with L2 larvae (6-8 per well). The samples were assessed for mortality, anti-feeding effect, and growth inhibition in comparison to untreated samples 6 days after infestation. Control of Chilo suppressalis by a test sample is given when at least one of the categories mortality, anti-feedant effect, and growth inhibition is higher than the untreated sample.

Another test relates to Diabrotica balteata. The test is described as follows: Example B2: activity against Diabrotica balteata (corn root worm), maize sprouts. The settings on record: 96 h, L2 larvae, 4 days after infestation, read-out: effect in at least one of the two categories (mortality or growth inhibition). As to the method: Maize sprouts placed onto an agar layer in 24-well microtiter plates were treated with aqueous test solutions prepared from 10′000 ppm DMSO stock solutions by spraying. After drying, the plates were infested with L2 larvae (6 to 10 per well). The samples were assessed for mortality and growth inhibition in comparison to untreated samples 4 days after infestation. The following compounds gave an effect of at least 80% in at least one of the two categories (mortality or growth inhibition) at an application rate of 200 ppm: P1, P2, P3, P4, P5, P7, P8, P9, P10, P11, P12, P13, P14, P15, P16, P17, P18, P19, P20, P21, P22, P23, P24, P25, P26, P27, P28, P29, P30, P31, P33, P34, P35, P36, P37, P38, P39, P40, P41, P42, P43, P45, P46, P47, P48, P49, P50, P51, P52, P53, P55, P57, P58, P59, P60, P61, P62, P63, P64, P65, P66, P67, P69, P71, P75, P81, P82, P83.

For the molecule `C[C@@H](c1ncnn1-c1cc(C(=O)N(C)CC2CC2)ncn1)N(C)c1ncnc2c(C(F)(F)F)cc(Cl)cc12` [Compound P83, 6-[5-[(1S)-1-[[6-chloro-8-(trifluoromethyl)quinazolin-4-yl]-methyl-amino]ethyl]-1,2,4-triazol-1-yl]-N-(cyclopropylmethyl)-N-methyl-pyrimidine-4-carboxamide], the mortality (as a rule, the share of the test organisms that died) at 12 ppm with Myzus persicae is ≥ 80%. Further, the percent effect (mortality or growth inhibition) at 200 ppm in the test with Plutella xylostella and with Diabrotica balteata was ≥ 80% throughout. In addition, the percent control (mortality, anti-feedant effect or growth inhibition) at 200 ppm with Spodoptera littoralis and with Chilo suppressalis was ≥ 80% in each case.

`C[C@H](Nc1ncnc2c(C(F)(F)F)cc(Cl)cc12)c1ncnn1-c1cc(C(=O)NC(C)(C)C#N)ncn1` [Compound P43, 6-[5-[(1S)-1-[[6-chloro-8-(trifluoromethyl)quinazolin-4-yl]amino]ethyl]-1,2,4-triazol-1-yl]-N-(1-cyano-1-methyl-ethyl)pyrimidine-4-carboxamide]: the mortality at 12 ppm in the test with Myzus persicae was ≥ 80%. The percent effect (mortality or growth inhibition) at 200 ppm in the test with Plutella xylostella and with Diabrotica balteata was ≥ 80% each time. The percent control (mortality, anti-feedant effect or growth inhibition) at 200 ppm in the test with Spodoptera littoralis and in the test on Chilo suppressalis was ≥ 80% in each case.

Regarding `C[C@H](Nc1ncnc2c(C(F)(F)F)cc(Cl)cc12)c1ncnn1-c1cc(C#N)ncn1` [Compound P19, 6-[5-[(1S)-1-[[6-chloro-8-(trifluoromethyl)quinazolin-4-yl]amino]ethyl]-1,2,4-triazol-1-yl]pyrimidine-4-carbonitrile], in the test with Myzus persicae, the mortality at 12 ppm was ≥ 80%. The percent effect (mortality or growth inhibition) at 200 ppm with Plutella xylostella and in the test with Diabrotica balteata was ≥ 80% throughout. The percent control (mortality, anti-feedant effect or growth inhibition) at 200 ppm in the test with Spodoptera littoralis and in the test on Chilo suppressalis was ≥ 80% throughout. The molecule further came in with a mortality at 12.5 ppm in the test on Chilo suppressalis (12.5 ppm) of 80%.

Take `CNC(=O)c1cc(-n2ncnc2[C@H](C)Nc2ncnc3c(Br)cc(Br)cc23)ncn1` [Compound P12, 6-[5-[(1S)-1-[(6,8-dibromoquinazolin-4-yl)amino]ethyl]-1,2,4-triazol-1-yl]-N-methyl-pyrimidine-4-carboxamide]: in the test with Myzus persicae, the mortality at 12 ppm is ≥ 80%. In addition, the percent effect (mortality or growth inhibition) at 200 ppm in the test with Plutella xylostella and with Diabrotica balteata was ≥ 80% each time. Moreover, the percent control (mortality, anti-feedant effect or growth inhibition) at 200 ppm in the test on Spodoptera littoralis and with Chilo suppressalis was ≥ 80% each time.

`C[C@H](Nc1ncnc2c(I)cc(Cl)cc12)c1ncnn1-c1cc(C(=O)N(C)C)ncn1` [Compound P65, 6-[5-[(1S)-1-[(6-chloro-8-iodo-quinazolin-4-yl)amino]ethyl]-1,2,4-triazol-1-yl]-N,N-dimethyl-pyrimidine-4-carboxamide]: the mortality at 12 ppm with Myzus persicae is ≥ 80%. In addition, the percent effect (mortality or growth inhibition) at 200 ppm in the test with Plutella xylostella and in the test with Diabrotica balteata was ≥ 80% each time. Moreover, the percent control (mortality, anti-feedant effect or growth inhibition) at 200 ppm with Spodoptera littoralis and with Chilo suppressalis was ≥ 80% in each case.

With `C[C@H](Nc1ncnc2c(Cl)cc(I)cc12)c1ncnn1-c1cc(C#N)ncn1` [Compound P18, 6-[5-[(1S)-1-[(8-chloro-6-iodo-quinazolin-4-yl)amino]ethyl]-1,2,4-triazol-1-yl]pyrimidine-4-carbonitrile], the mortality at 12 ppm with Myzus persicae was ≥ 80%. The percent effect (mortality or growth inhibition) at 200 ppm with Plutella xylostella and in the test on Diabrotica balteata was ≥ 80% each time. Further, the percent control (mortality, anti-feedant effect or growth inhibition) at 200 ppm in the test on Spodoptera littoralis and with Chilo suppressalis was ≥ 80% in each case.

`C[C@H](Nc1ncnc2c(C(F)(F)F)cc(Cl)cc12)c1ncnn1-c1cc(C(=O)NO)ncn1` [Compound P26, 6-[5-[(1S)-1-[[6-chloro-8-(trifluoromethyl)quinazolin-4-yl]amino]ethyl]-1,2,4-triazol-1-yl]pyrimidine-4-carbohydroxamic acid]: the mortality at 12 ppm in the test with Myzus persicae was ≥ 80%. The percent effect (mortality or growth inhibition) at 200 ppm with Plutella xylostella and with Diabrotica balteata was ≥ 80% throughout. The percent control (mortality, anti-feedant effect or growth inhibition) at 200 ppm with Spodoptera littoralis and in the test on Chilo suppressalis was ≥ 80% each time.

Turning to `CNC(=O)c1cc(-n2ncnc2[C@H](C)N(C)c2ncnc3c(Br)cc(Br)cc23)ncn1` [Compound P11, 6-[5-[(1S)-1-[(6,8-dibromoquinazolin-4-yl)-methyl-amino]ethyl]-1,2,4-triazol-1-yl]-N-methyl-pyrimidine-4-carboxamide], the mortality at 12 ppm in the test with Myzus persicae is ≥ 80%. Moreover, the percent effect (mortality or growth inhibition) at 200 ppm in the test with Plutella xylostella and in the test on Diabrotica balteata was ≥ 80% in each case. Also, the percent control (mortality, anti-feedant effect or growth inhibition) at 200 ppm in the test on Spodoptera littoralis and in the test with Chilo suppressalis was ≥ 80% in each case.

Turning to `C[C@H](Nc1ncnc2c(C(F)(F)F)cc(Cl)cc12)c1ncnn1-c1cc(C(=O)NC2CS(=O)(=O)C2)ncn1` [Compound P24, 6-[5-[(1S)-1-[[6-chloro-8-(trifluoromethyl)quinazolin-4-yl]amino]ethyl]-1,2,4-triazol-1-yl]-N-(1,1-dioxothietan-3-yl)pyrimidine-4-carboxamide], the mortality at 12 ppm in the test with Myzus persicae is ≥ 80%. Besides, the percent effect (mortality or growth inhibition) at 200 ppm in the test with Plutella xylostella and with Diabrotica balteata was ≥ 80% in each case. In addition, the percent control (mortality, anti-feedant effect or growth inhibition) at 200 ppm in the test with Spodoptera littoralis and in the test with Chilo suppressalis was ≥ 80% in each case.

As to `C[C@H](Nc1ncnc2c(C(F)(F)F)cc(Cl)cc12)c1ncnn1-c1cc(C(=O)NCCC#N)ncn1` [Compound P39], the mortality at 12 ppm in the test with Myzus persicae was ≥ 80%. In addition, the percent effect (mortality or growth inhibition) at 200 ppm with Plutella xylostella and with Diabrotica balteata was ≥ 80% each time. Also, the percent control (mortality, anti-feedant effect or growth inhibition) at 200 ppm with Spodoptera littoralis and with Chilo suppressalis was ≥ 80% each time.

For `C[C@@H](c1ncnn1-c1cc(C(=O)N(C)C2CC2)ncn1)N(C)c1ncnc2c(C(F)(F)F)cc(Cl)cc12` [Compound P81, 6-[5-[(1S)-1-[[6-chloro-8-(trifluoromethyl)quinazolin-4-yl]-methyl-amino]ethyl]-1,2,4-triazol-1-yl]-N-cyclopropyl-N-methyl-pyrimidine-4-carboxamide], the mortality at 12 ppm with Myzus persicae was ≥ 80%. In addition, the percent effect (mortality or growth inhibition) at 200 ppm with Plutella xylostella and with Diabrotica balteata was ≥ 80% in each case. For the same molecule, the percent control (mortality, anti-feedant effect or growth inhibition) at 200 ppm in the test with Spodoptera littoralis and with Chilo suppressalis was ≥ 80% in each case.
